Key:
Format in all cases: cell-based, mouse
[1] = test system: M2-10B4 marrow stromal cells; assay: Matrix mineralization (45Ca incorporation assay, von Kossa staining) in M2-10B4 marrow stromal cells; settings: pretreatment; cyclopamine 1-10 μM, DKK-1 1 μg/ml
Protocol: (§1) Cells: M2-10B4 mouse marrow stromal cell line obtained from American Type Culture Collection (ATCC, Rockville, Md., U.S.A.) was derived from bone marrow stromal cells of a (C57BL/6J x C3H/HeJ) Fl mouse, and support human and murine myelopoiesis in long-term cultures (as per ATCC) and have the ability to differentiate into osteoblastic and adipocytic cells. Unless specified, these cells were cultured in RPMI 1640 containing 10% heat-inactivated FBS, and supplemented with 1 mM sodium pyruvate, 100 U/ml penicillin, and 100 U/ml streptomycin (all from Irvine Scientific).
(§2) Von Kossa and oil red O staining—Matrix mineralization in cell monolayers was detected by silver nitrate staining as previously described. Oil red O staining for detection of adipocytes was performed as previously described.
^45Ca incorporation assay—Matrix mineralization in cell monolayers was quantified using the ^45Ca incorporation assay as previously described.
After 14 days, mineralization was identified by a von Kossa staining, which appears black. FIG. 3C is a depiction of von Kossa staining of M2 cells exposed to various conditions.
After 14 days, matrix mineralization in cultures was quantified using a ^45Ca incorporation assay.
(§3) Next, a combination of 22R and 20S oxysterols (RS, 2.5 μM each) were added in the presence or absence of SC as indicated. After 3 days, ALP activity was measured as described earlier. […] (B) M2 cells were treated as described in (A) and after 10 days matrix mineralization in cultures was quantified by a ^45Ca incorporation assay as described earlier. […] (C) M2 cells were pretreated with 20 μM SC for 4 hours, followed by the addition of RS in the presence or absence of SC as described above. After 8 days, total RNA was isolated and analyzed for osteocalcin (Osc) and […] expression by Northern blotting as previously described. Data from densitometric analysis of the Northern blot is shown in (D) as the average of duplicate samples, normalized to 18S rRNA. (E) M2 cells at confluence were pretreated for 2 hours with control vehicle (C), or PLA2 inhibitors ACA (25 μM) and AACOCF3 (AAC, 20 μM), in osteogenic medium. Next, a combination of 22R and 20S oxysterols (RS, 2.5 μM) was added in the presence or absence of the inhibitors as indicated. After 3 days, ALP activity was measured as previously described. […] (F) M2 cells were treated as described in (E). After 10 days, matrix mineralization in cultures was quantified using a ^45Ca incorporation assay as previously described. Results from a representative of three experiments are shown, reported as the mean of quadruplicate determinations ±SD, normalized to protein concentration (p<0.01 for RS vs. RS+ACA and RS+AAC).
(A) M2 cells at confluence were pretreated for four hours with RPMI containing 1% FBS, followed by treatment with control vehicle or 5 μM 20S oxysterol for 1, 4, or 8 hours. Next total cell extracts were prepared and analyzed for levels of native or phosphorylated ERK (pERK) using specific antibodies as previously described. Data from a representative of four experiments are shown, each treatment shown in duplicate samples. (B) M2 cells at confluence were pretreated for 2 hours with control vehicle (C) or 20 μM PD98059 (PD) in osteogenic medium as previously described. Next, a combination of 22R and 20S oxysterols (RS, 5 μM each) were added to appropriate wells as indicated. After 10 days of incubation, matrix mineralization was quantified by the ^45Ca incorporation assay as previously described. […] (C) M2 cells at confluence were pretreated for 2 hours with 20 µM PD98059 (PD) in RPMI containing 5% FBS. Next, the cells were treated with control vehicle (C), 10 μM troglitazone (Tro), or 10 μM of 20S or 22S oxysterols, alone or in combination as indicated. After 10 days, adipocytes were visualized by oil Red O staining and quantified by light microscopy as previously described. […]

osteocalcin mRNA = assay: Northern blotting for osteocalcin mRNA in M2-10B4 cells; settings: for levels of osteocalcin mRNA relative to the control: 5 μM, eight days, M2-10B4
Protocol: RNA isolation and Northern blot analysis—Following treatment of cells under appropriate experimental conditions, total RNA was isolated using the RNA isolation kit from Stratagene (La Jolla, Calif., U.S.A.). Total RNA ([…]) was run on a 1% agarose/formaldehyde gel and transferred to Duralon-UV membranes (Strategene, CA, U.S.A.) and cross-linked with UV light. The membranes were hybridized overnight at 60 degree C. with ^32P-labeled mouse osteocalcin cDNA probe, mouse lipoprotein lipase (LPL), mouse adipocyte protein 2 (aP^2) PCR-generated probes, human 28S or 18S rRNA probes obtained from Geneka Biotechnology (Montreal, Quebec, Canada) and Maxim Biotech (San Francisco, Calif., U.S.A.), respectively. The PCR products were generated using primer sets synthesized by Invitrogen (Carlsbad, Calif., U.S.A.) with the following specifications: mouse aP2 gene (accession no. M13261); sense (75-95) 5′-[…]-3′, antisense (362-383) 5′-[…]-3′, generating a PCR product of 309 base pairs. Mouse LPL (accession no. XM—134193); sense (1038-1058) 5′-[…]-3′, antisense (1816-1836) 5′-[…]-3′, generating a PCR product of 799 base pairs. The PCR products were gel-purified and sequenced by the UCLA sequencing core, showing the highest similarity to their respective GenBank entries. Following hybridization, the blots were washed twice at room temperature with 2×SSC+0.1% SDS, and then twice at 60 degree C. with 0.5×SSC+0.1% SDS, and exposed to X-ray film. The extent of gene induction was determined by densitometry.
After 4 and 8 days, total RNA from duplicate samples was isolated and analyzed for osteocalcin (Osc) and 28S rRNA expression by Northern blotting as described. FIG. 3E is a radiogram of Northern blotting for osteocalcin mRNA in M2 cells exposed to a control or combination of oxysterols for 4 or 8 days. FIG. 3F is a bar graph depicting the relative demsometric units of osteocalcin mRNA in M2 cells exposed to a control or combination of oxysterols for 4 -or 8 days. Data from densitometric analysis of the Northern blot is shown in (F) as the average of duplicate samples, normalized to 28S rRNA.
as §3
ALP activity was measured after 2 days, as described. […] (B) M2 cells were treated as described in (A). After 10 days, matrix mineralization in cultures was quantified using a ^45Ca incorporation assay as described. […] (C) M2 cells were treated under similar conditions as those described above. […]

Runx2 = Runx2 DNA binding and protein expression in M2-10B4 cells; settings: pretreatment; cyclopamine 1-10 μM; DKK-1 1 μg/ml (Runx2 protein expression only)
Protocol: Method: Marrow stromal cells (M2-10B4 (M2)) were treated with doses of 5-15 μM 20S-hydroxycholestrol.
Method: Marrow stromal cells (M2-10B4 (M2)) were treated with doses of 5-15 μM20S-hydroxycholestrol. Groups of cells were pre-treated with 22S or 22R.
Method: Marrow stromal cells (M2-10B4 (M2)) were pretreated with Wnt signaling inhibitor, DKK-1 (1 μg/ml), then treated with 20S-hydroxycholestrol and 22(8)-hydroxycholesterol.

[2] = test system: M2-10B4 marrow stromal cells; assay: Alkaline phosphatase (ALP) activity assay on whole cell extracts of M2-10B4 marrow stromal cells; settings: for Enzyme Activity (units/mg total cellular protein) ± SD, alkaline phosphatase: oxysterols 5 μM, 4 days, M2-10B4, untreated 6 ± 3
Protocol: as §1
Cells were always treated at 90% confluence. […]
as §3, with “Results from a representative of three experiments are shown, reported as the mean of quadruplicate determinations ±SD, normalized to protein concentration (p<0.01 for RS vs. RS+ACA and RS+AAC).” left out

marrow stromal cells = assay: Osteogenic differentiation of marrow stromal cells (marker not specified: ALP activity, osteocalcin mRNA, mineral formation)
Protocol: The purpose of the study was to identify other osteogenic and anti-adipogenic oxysterols based on the chemical structure of previously identified oxysterols. The ability of such candidate oxysterol molecules to induce the formation of osteoblastic cells in cultures of marrow stromal cells (which are progenitors of osteoblastic cells that make bone) were tested. In order to assess osteogenic differentiation of cells, one or more markers of osteogenic differentiation were measured in untreated cells and cells treated with the test oxysterols. These markers included: alkaline phosphatase activity, osteocalcin mRNA expression and mineral formation in cultures of marrow stromal cells. Activation of either one or more than one marker by a single or combination oxysterols is indicative of their osteogenic property.

M2 cells = assay: Troglitazone-induced adipogenesis in M2 cells (oil Red O staining, adipocyte count); settings: Tro 10 μM, oxysterol 10 μM, 10 days, alone or in combination
Protocol: as §2
Test 1: M2 cells at 90% confluence were treated with vehicle (C), PPAR-γ activator, troglitazone 10 μM (Tro), alone or in combination with 10 μM oxysterols 20S-, 22R-, or 25S-hydroxycholesterol. After 8 days, adipocytes were identified by oil Red 0 staining and quantified by counting under a phase contrast microscope. FIG. 6A is a bar graph depicting the effect of oxysterols on reducing adipogenesis of MSC.
Test 2: (A) M2 cells at confluence were treated in RPMI containing 10% FBS with control vehicle or 10 μM troglitazone (Tro) in the absence or presence of 10 μM 20S or 22S-hydroxycholesterol. After 10 days, adipocytes were visualized by oil Red O staining and quantified by light microscopy, shown in (B). […] (C) M2 cells were treated at confluence with 10 μM Tro, alone or in combination with 10 μM 20S oxysterol. After 10 days, total RNA was isolated and analyzed for lipoprotein lipase (LPL), adipocyte P2 gene (aP2) or 18S rRNA expression by Northern blotting as described (Ref). Data from densitometric analysis of the Northern blot is shown in (D) as the average of duplicate samples, normalized to 18S rRNA.

Structure (SMILES): CC1=C2C[C@H]3[C@@H](CC=C4C[C@@H](O)CC[C@@]43C)[C@@H]2CC[C@]12O[C@@H]1C[C@H](C)CN[C@H]1[C@H]2C [cyclopamine, reference compound]
- effect on SS-induced mineralization [1]: inhibited
- effect on SS-induced osteocalcin mRNA expression (osteocalcin mRNA; pretreatment, cyclopamine 1-10 μM, DKK-1 1 μg/ml): inhibited
- effect on SS-induced Runx2 DNA binding and protein expression (Runx2): inhibited

Structure (SMILES): C[C@H](CC[C@@H]1OC1(C)C)[C@H]1CC[C@H]2[C@@H]3CC=C4C[C@@H](O)CC[C@]4(C)[C@H]3CC[C@]12C [24S,25-epoxycholesterol]
- Enzyme Activity (units/mg total cellular protein) ± SD, alkaline phosphatase [2]: 1,588 ± 19^ units/mg total cellular protein
- levels of osteocalcin mRNA relative to the control (osteocalcin mRNA): increased
- osteogenic property, alone or in combination with originally described oxysterols (marrow stromal cells): osteoinductive

Structure (SMILES): CC(C)[C@@H](O)CC[C@@H](C)[C@H]1CC[C@H]2[C@@H]3CC=C4C[C@@H](O)CC[C@]4(C)[C@H]3CC[C@]12C [24-hydroxycholesterol, 24(S)-hydroxycholesterol]
- Enzyme Activity (units/mg total cellular protein) ± SD, alkaline phosphatase [2]: 250 ± 20 units/mg total cellular protein
- osteogenic property, alone or in combination with originally described oxysterols (marrow stromal cells): osteoinductive

Structure (SMILES): CC(C)CCC[C@@H](C)[C@H]1CC[C@H]2[C@@H]3C(=O)C=C4C[C@@H](O)CC[C@]4(C)[C@H]3CC[C@]12C [7-ketocholesterol, reference compound]
- induction of alkaline phosphatase activity ([2]; 10 μM oxysterol, 3 days, osteogenic medium): did not induce
- effect on troglitazone-induced adipogenesis (M2 cells): unable to inhibit adipogenesis

Structure (SMILES): CC(C)CCC[C@@H](C)[C@H]1CC[C@H]2[C@@H]3CC=C4[C@@H](O)[C@@H](O)CC[C@]4(C)[C@H]3CC[C@]12C [4beta-hydroxycholesterol]
- levels of osteocalcin mRNA relative to the control (osteocalcin mRNA): moderate increase
- osteogenic property, alone or in combination with originally described oxysterols (marrow stromal cells): osteoinductive

— patent US20090220562A1, “Osteogenic and anti-adipogenic oxysterols” (priority 2005, published 2009)
